# Source: US20110166079A1, “METHODS OF TREATING CANCER WITH APOE PEPTIDES” (COGNOSCI, INC., priority 2008, published 2011)
# Where two headings read alike, the source gives them in different places. Non-standard residues stand in square brackets, D forms with d. Residues, ends and D or L forms follow the SMILES beside them. No end group written: not given here. Arg(NO2) = N=C(NCCC[C@H](N)C(=O)O)N[N+](=O)[O-]; Aib = CC(C)(N)C(=O)O
# How the values were obtained:
# B-CLL cells = assay: Cytotoxicity on B-CLL cells from CLL patients (MTS assay); conditions: for Fold Change: EC50 relative to COG056 control
# Procedure: To determine whether COG peptides could counteract the overactivation of the Akt/NFkB pathway in B-CLL cells and effectively induce apoptosis, cytotoxicity testing was performed on freshly isolated B-CLL cells from CLL patients with COG peptides. Blood from CLL patients was collected and CD5+/CD19+ CLL cells were isolated using the RosetteSep™ Human B Cell Enrichment Cocktail. This method depletes whole blood of T cells, monocytes, and NK cells using a proprietary antibody cocktail containing anti-CD14, anti-CD2 and anti-CD16 antibodies to remove T cells, monocytes, and NK cells, respectively. The antibody cocktail crosslinks unwanted cells in human whole blood to multiple red blood cells forming immunorosettes thereby increasing the density of the rosetted cells, such that they pellet along with the free RBCs when centrifuged over a buoyant density medium such as Ficoll-Paque®. The highly enriched B-cell or B-CLL cells are left at the interface between Ficoll and the plasma.
# COG peptides were applied to the isolated B-CLL cells (0.25×10^6 cells/well in a 96 well plate) for 72 hours, after which viable cells were assessed using the MTS assay ([…]).
# Additional B-CLL cells and peripheral blood mononuclear cells (PBMC; i.e., normal B cells) were isolated from leukemia patients and normal volunteers, respectively, and were treated with a range of COG112 concentrations.
# IκB = assay: LPS-induced phosphorylation of IκB in BV2 microglia (Western blot); format: cell-based, mouse; conditions: 100 ng/mL LPS, 5 μM COG133, FIG. 2A
# Procedure: To determine whether COG peptides modulated the PI-3 kinase/Akt pathway and subsequent activation of NFκB, the phosphorylation state of proteins in the pathway was analyzed in cells exposed to bacteria or a bacterial antigen (lipopolysaccharide) in the absence and presence of COG peptides. In a first series of experiments, mouse BV2 microglia in six well plates were incubated with 100 ng/mL of LPS alone or in the presence of 5 μM COG133 (SEQ ID NO: 1) peptide. Cells were lysed and a clarified extract prepared by centrifugation. Polyacrylamide gels were loaded with 30 μg of extract per lane and run in SDS buffer. […] Membranes were then probed with an anit-phospho-IκBα antibody. Membranes were developed with Enhanced Chemiluminescence substrates (GE healthcare) and visualized by exposure to film. Membranes were then stripped and reprobed for total IκB using a non phospho-specific anti-IκBα antibody. A duplicate blot was probed with anti-GAPDH antibodies.
# NFκB = NFκB nuclear translocation in LPS-stimulated BV2 microglial cells (gel shift); format: cell-based, mouse; conditions: nuclear extracts, FIG. 2B
# Procedure: In the dephosphorylated state, IκB binds to the transcription factor NFκB and prevents it from translocating to the nucleus to activate transcription of pro-survival proteins. […] A radiolabeled oligonucelotide containing a NFκB binding site was added to the proteins from the nuclear extracts and the proteins were subsequently separated by non-denaturing polyacrylamide gel electrophoresis. The amount of NFκB present in the nuclear extracts was detected by autoradiography (FIG. 2B). Nuclear NFκB was reduced in the presence of COG133 providing further evidence that this signal transduction cascade is suppressed in cells treated with ApoE peptides.
# microglial cells = conditions: relative to COG133, microglial cells; cited from earlier work
# PP2A = biological target: T1, PP2A (Mus musculus, UniProt P63330); assay: PP2A activity in RAW cells (immunoprecipitation / phosphate release); format: cell-based; conditions: 30 minutes, 2 μM COG112, 10 nM okadaic acid, FIG. 3
# T1 construct: cells were lysed and PP2A was immunoprecipitated by adding an antibody targeted to the catalytic C-subunit of PP2A; endogenous in cells; host or cells: mouse macrophagic RAW cells
# T1 sequence (P63330 whole entry): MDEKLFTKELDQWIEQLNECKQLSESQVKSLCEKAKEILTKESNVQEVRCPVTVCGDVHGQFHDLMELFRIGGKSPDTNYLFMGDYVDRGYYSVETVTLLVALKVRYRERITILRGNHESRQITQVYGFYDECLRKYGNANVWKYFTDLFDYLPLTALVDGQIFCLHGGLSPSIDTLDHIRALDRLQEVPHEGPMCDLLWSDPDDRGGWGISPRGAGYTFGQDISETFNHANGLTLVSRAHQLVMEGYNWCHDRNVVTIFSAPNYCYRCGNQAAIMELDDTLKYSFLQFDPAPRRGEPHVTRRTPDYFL
# Procedure: Mouse macrophagic RAW cells were incubated with either 2 μM COG112 (SEQ ID NO: 2), 10 nM okadaic acid (an inhibitor of PP2A), or okadaic acid and COG112. After 30 minutes, cells were lysed and PP2A was immunoprecipitated by adding an antibody targeted to the catalytic C-subunit of PP2A. Half of the immunoprecipitate was separated by SDS-PAGE, blotted on to nitrocellulose, and probed with an anti-PP2AC antibody. The remaining portion was assayed for activity by adding 125 μL assay cocktail containing a phospho-threonine substrate peptide to the immunoprecipitated enzyme. After incubating at 37° C. with shaking, a 25 μL aliquot was removed and added to an ammonium molybdate solution (Upstate) that chelates free phosphate and changes color upon chelate formation. Aliquots were removed at various time intervals and the amount of free phosphate released from the peptide was determined by comparison to a phosphate standard curve. The rate of phosphate release was determined by linear fit to the time course data and was normalized to the relative PP2A concentration. […] PP2A activity was reduced in the presence of okadaic acid alone as expected. […] Thus, the active pool of PP2A in a cell can be regulated by ApoE peptides.
# [1] = B-CLL cells, 72 hours, MTS assay
molecule,measurement,setting,value
CC(=O)N[C@@H](CC(C)C)C(=O)N[C@@H](CCCNC(=N)N)C(=O)N[C@H](C(=O)N[C@@H](CCCNC(=N)N)C(=O)N[C@@H](CC(C)C)C(=O)N[C@@H](C)C(=O)N[C@@H](CO)C(=O)N[C@@H](Cc1c[nH]cn1)C(=O)N[C@@H](CC(C)C)C(=O)N[C@@H](CCCNC(=N)N)C(=O)N[C@@H](CCCCN)C(=O)N[C@@H](CC(C)C)C(=O)N[C@@H](CCCNC(=N)N)C(=O)N[C@@H](CCCCN)C(=O)N[C@@H](CCCNC(=N)N)C(=O)N[C@@H](CC(C)C)C(=O)N[C@@H](CC(C)C)C(N)=O)C(C)C [COG133],cytotoxic activity compared in words,B-CLL cells; [1],slightly improved activity relative to the COG056
same,Fold Change,B-CLL cells,2.9
same,LPS-induced phosphorylation of IκB,IκB,reduces
same,nuclear NFκB,NFκB,reduced
"CC(C)C[C@H](NC(=O)[C@H](CC(C)C)NC(=O)[C@H](CCCNC(=N)N)NC(=O)[C@H](CCCCN)NC(=O)[C@H](CCCNC(=N)N[N+](=O)[O-])NC(=O)[C@H](CC(C)C)NC(=O)[C@H](CCCNC(=N)N)NC(=O)[C@H](CCCCN)NC(=O)[C@H](CC(C)C)NC(=O)C(C)(C)NC(=O)[C@H](CO)NC(=O)[C@H](C)NC(=O)[C@H](CC(C)C)NC(=O)[C@H](CCCNC(=N)N)NC(=O)[C@@H](NC(=O)[C@H](CCCNC(=N)N)NC(=O)[C@@H](N)CC(C)C)C(C)C)C(=O)O [COG248, LRVRLAS(Aib)LKRL(nitroR)KRLL] (H-LRVRLAS[Aib]LKRL[Arg(NO2)]KRLL-OH)",cytotoxic activity compared in words,B-CLL cells; [1],enhanced activity compared to COG133
same,Fold Change,B-CLL cells,5.5
"CC(=O)N[C@@H](C)C(=O)N[C@@H](CO)C(=O)NC(C)(C)C(=O)N[C@@H](CC(C)C)C(=O)N[C@@H](CCCNC(=N)N)C(=O)N[C@@H](CCCCN)C(=O)N[C@@H](CC(C)C)C(=O)NC(C)(C)C(=O)N[C@@H](CCCCN)C(=O)N[C@@H](CCCNC(=N)N)C(=O)N[C@@H](CC(C)C)C(=O)N[C@@H](CC(C)C)C(N)=O [COG1410, Ac-AS-Aib-LRKL-Aib-KRLL-NH2] (Ac-AS[Aib]LRKL[Aib]KRLL-NH2)",cytotoxic activity compared in words,B-CLL cells,no difference in potency
same,Fold Change,B-CLL cells,2.3
same,EC50,"B-CLL cells; read-out: EC50 (cytotoxicity of COG compounds on B-CLL cells), isolated B-CLL cells, 72 hours, MTS assay",5.7 ± 3 µM
same,potency for suppressing NO production,microglial cells,improved potency
"C=C1[C@@H](O)[C@@H]2O[C@]3(CC[C@H](/C=C/[C@@H](C)[C@@H]4CC(C)=C[C@@]5(O[C@H](C[C@@](C)(O)C(=O)O)CC[C@H]5O)O4)O3)CC[C@H]2O[C@@H]1[C@@H](O)C[C@H](C)[C@H]1O[C@@]2(CCCCO2)CC[C@H]1C [okadaic acid, reference compound]",PP2A activity (rate of phosphate release),PP2A,reduced
"LLRKRLKRLHSALRVRL [COG056, reference compound]",Fold Change,B-CLL cells,1.0
same,EC50,"B-CLL cells; human, 72 hours",12.9 ± 4.6 µM
